Measured values as given in ChEMBL document CHEMBL3351493, “Beta-aminoketones as prodrugs for selective irreversible inhibitors of type-1 methionine aminopeptidases” (Bioorg Med Chem Lett, 2014).
pIC50: −log10 of the molar value. Activity calls are given as the source filed them. No cut-off for these calls is given here.

Legend:
Escherichia coli [1] = test: Antimicrobial activity against Escherichia coli BL21(DE3) assessed as inhibition of bacterial growth incubated at 37 degC for 7 hrs; type: functional
MeWo = test: Cytotoxicity against human MeWo cells at 1.6 to 100 ug/ml after 72 hrs by crystal violet assay; type: functional, cell-based
SW707 = test: Cytotoxicity against human SW707 cells at 1.6 to 100 ug/ml after 72 hrs by crystal violet assay; type: functional, cell-based
[2] = Glutathione reactivity assessed as second-order rate constant at 250 uM at pH 6.0 by HPLC-UV method
BT-474 = test: Cytotoxicity against human BT474 cells at 1.6 to 100 ug/ml after 72 hrs by crystal violet assay; type: functional, cell-based
CAPAN-1 = test: Cytotoxicity against human Capan1 cells at 1.6 to 100 ug/ml after 72 hrs by crystal violet assay; type: functional, cell-based
[3] = Cytotoxicity against human Flow 2002 cells at 1.6 to 100 ug/ml after 72 hrs by crystal violet assay; type: cell-based; conditions: flow 2002, 72 h
Calu-6 = test: Cytotoxicity against human Calu6 cells at 1.6 to 100 ug/ml after 72 hrs by crystal violet assay; type: functional, cell-based
HaCaT = test: Cytotoxicity against human HaCaT cells at 1.6 to 100 ug/ml after 72 hrs by crystal violet assay; type: cell-based
A-431 = test: Cytotoxicity against human A431 cells at 1.6 to 100 ug/ml after 72 hrs by crystal violet assay; type: functional, cell-based
A 172 = test: Cytotoxicity against human A172 cells at 1.6 to 100 ug/ml after 72 hrs by crystal violet assay; type: functional, cell-based
Ca-Ski = test: Cytotoxicity against human CaSki cells at 1.6 to 100 ug/ml after 72 hrs by crystal violet assay; type: functional, cell-based
[4] = target: Methionine aminopeptidase (Staphylococcus aureus (strain COL), UniProt Q5HEN6); test: Inhibition of N-terminal poly-His-tagged Staphylococcus aureus COL MetAP expressed in Escherichia coli BL21(DE3) incubated for 30 mins before MGMM substrate addition by fluorescence assay; set-up: species or system Staphylococcus aureus subsp. aureus COL
Methionine aminopeptidase (Staphylococcus aureus (strain COL), UniProt Q5HEN6), sequence (Q5HEN6 whole entry): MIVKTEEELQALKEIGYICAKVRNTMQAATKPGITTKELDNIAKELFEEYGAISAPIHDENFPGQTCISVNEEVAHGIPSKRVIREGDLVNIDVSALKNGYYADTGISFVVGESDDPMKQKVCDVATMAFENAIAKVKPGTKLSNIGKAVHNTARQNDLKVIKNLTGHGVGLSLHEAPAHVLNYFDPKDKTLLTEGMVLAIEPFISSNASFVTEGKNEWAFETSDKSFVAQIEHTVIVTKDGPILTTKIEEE

Escherichia coli [5] = test: Antimicrobial activity against Escherichia coli BL21(DE3) assessed as inhibition of bacterial growth at 200 uM incubated at 37 degC for 7 hrs; type: functional; conditions: for inhibition at 200 µM: BL21-DE3, 7 h
[6] = target: Methionine aminopeptidase 1 (Homo sapiens, UniProt P53582); test: Inhibition of N-terminal poly-His-tagged human MetAP-1 expressed in Escherichia coli BL21(DE3) incubated for 30 mins before MGMM substrate addition by fluorescence assay
[7] = target: T1, Methionine aminopeptidase (Escherichia coli K-12, UniProt P0AE18); test: Inhibition of C-terminal poly-His-tagged Escherichia coli MetAP expressed in Escherichia coli BL21(DE3) incubated for 30 mins before MGMM substrate addition by fluorescence assay; conditions: for pIC50: read-out: IC50
T1 sequence (P0AE18 whole entry): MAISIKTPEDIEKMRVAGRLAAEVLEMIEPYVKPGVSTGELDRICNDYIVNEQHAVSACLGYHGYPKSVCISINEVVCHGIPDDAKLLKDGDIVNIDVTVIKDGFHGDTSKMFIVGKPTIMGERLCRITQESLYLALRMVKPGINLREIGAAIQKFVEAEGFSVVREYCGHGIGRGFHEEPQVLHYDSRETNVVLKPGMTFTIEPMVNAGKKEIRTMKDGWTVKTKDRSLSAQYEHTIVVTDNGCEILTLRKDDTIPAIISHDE

[8] = target: Methionine aminopeptidase 2 (Homo sapiens, UniProt P50579); conditions: sf9
Methionine aminopeptidase 2, sequence (P50579 whole entry): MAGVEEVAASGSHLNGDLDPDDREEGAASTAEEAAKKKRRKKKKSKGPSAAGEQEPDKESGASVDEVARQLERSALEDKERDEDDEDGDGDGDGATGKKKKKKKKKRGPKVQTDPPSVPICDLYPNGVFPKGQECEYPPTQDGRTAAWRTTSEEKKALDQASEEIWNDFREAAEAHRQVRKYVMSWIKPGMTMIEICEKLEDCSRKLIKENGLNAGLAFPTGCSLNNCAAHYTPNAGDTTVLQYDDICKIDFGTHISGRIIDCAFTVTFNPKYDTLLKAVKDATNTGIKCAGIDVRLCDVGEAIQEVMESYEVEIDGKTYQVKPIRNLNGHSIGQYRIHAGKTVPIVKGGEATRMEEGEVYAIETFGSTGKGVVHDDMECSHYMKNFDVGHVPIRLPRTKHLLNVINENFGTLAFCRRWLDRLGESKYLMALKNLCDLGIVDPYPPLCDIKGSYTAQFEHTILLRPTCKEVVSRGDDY
Description: Inhibition of human MetAP-2 expressed in Sf9 cells incubated for 60 mins before MGMM substrate addition by fluorescence assay

[9] = Half life assessed as decomposition into amines and unsaturated ketones at 250 uM in 50 mM Tris/maleate pH 7.5 buffer by HPLC method; type: physicochemical; conditions: for t1/2: buffer, pH 7.5, 250 µM; for half-life at 250 µM: Tris/maleate buffer, pH 7.5

Structure (SMILES): C[C@@H]1O[C@@H]1P(=O)([O-])[O-].[Na+].[Na+] [PHOSPHOMYCIN DISODIUM]
- MIC (Escherichia coli [1]): 20 µg/mL

Structure (SMILES): CN(C)[C@@H]1C(O)=C(C(N)=O)C(=O)[C@@]2(O)C(O)=C3C(=O)c4c(O)cccc4[C@@](C)(O)[C@H]3C[C@@H]12.Cl [TETRACYCLINE HYDROCHLORIDE]
- MIC (Escherichia coli [1]): 1 µg/mL

Structure (SMILES): NC[C@H]1O[C@H](O[C@H]2[C@H](O)[C@@H](O[C@H]3O[C@H](CO)[C@@H](O)[C@H](N)[C@H]3O)[C@H](N)C[C@@H]2N)[C@H](O)[C@@H](O)[C@@H]1O.O=S(=O)(O)O [KANAMYCIN SULFATE]
- MIC (Escherichia coli [1]): 10 µg/mL

Structure (SMILES): C=C1CCc2ccc(OC)cc2C1=O
- Activity (MeWo): Active
- Activity (SW707): Active
- K [2]: 1.7 M⁻¹ s⁻¹
- Activity (BT-474): Active
- Activity (CAPAN-1): Active
- Activity [3]: Toxic
- Activity (Calu-6): Active
- Activity (HaCaT): Toxic
- Activity (A-431): Active
- Activity (A 172): Active
- Activity (Ca-Ski): Active

Structure (SMILES): CCC(CN(C)C)C(=O)c1ccccc1.Cl (centres undefined)
- Activity (MeWo): Active
- IC50 [4]: Not Active
- Activity (SW707): Active
- inhibition (Escherichia coli [5]): inactive
- Activity (BT-474): Active
- Activity (CAPAN-1): Active
- Activity [3]: Toxic
- Activity (Calu-6): Active
- Activity (HaCaT): Toxic
- IC50 [6]: Not Active
- IC50 [7]: Not Active
- Activity (A-431): Active
- IC50 [8]: Not Active
- Activity (A 172): Active
- t1/2 [9]: Stable
- Activity (Ca-Ski): Active

Structure (SMILES): CC1CC(CN(C)C)C(=O)c2ccccc21.Cl (centres undefined)
- Activity (MeWo): Active
- IC50 [4]: Not Active
- Activity (SW707): Active
- inhibition at 200 µM (Escherichia coli [5]): 75%
- Activity (BT-474): Active
- Activity (CAPAN-1): Active
- Activity [3]: Toxic
- Activity (Calu-6): Active
- Activity (HaCaT): Toxic
- IC50 [6]: Not Active
- pIC50 [7]: 5.42
- Activity (A-431): Active
- IC50 [8]: Not Active
- Activity (A 172): Active
- half-life at 250 µM [9]: 4.82 h
- Activity (Ca-Ski): Active

Structure (SMILES): C=C1CCc2ccccc2C1=O
- Activity (MeWo): Active
- Activity (SW707): Active
- K [2]: 1.4 M⁻¹ s⁻¹
- Activity (BT-474): Active
- Activity (CAPAN-1): Active
- Activity [3]: Toxic
- Activity (Calu-6): Active
- Activity (HaCaT): Toxic
- Activity (A-431): Active
- Activity (A 172): Active
- Activity (Ca-Ski): Active

Structure (SMILES): COc1ccc2c(c1)C(=O)C(CN(C)C)CC2.Cl (centres undefined)
- Activity (MeWo): Active
- IC50 [4]: Not Active
- Activity (SW707): Active
- inhibition at 200 µM (Escherichia coli [5]): 49%
- Activity (BT-474): Active
- Activity (CAPAN-1): Active
- Activity [3]: Toxic
- Activity (Calu-6): Active
- Activity (HaCaT): Toxic
- IC50 [6]: Not Active
- pIC50 [7]: 5.68
- Activity (A-431): Active
- IC50 [8]: Not Active
- Activity (A 172): Active
- half-life at 250 µM [9]: 6.8 h
- Activity (Ca-Ski): Active

Structure (SMILES): CN(C)CC1(C)Cc2ccccc2C1=O.Cl (centres undefined)
- Activity (MeWo): inactive
- IC50 [4]: Not Active
- Activity (SW707): inactive
- inhibition (Escherichia coli [5]): inactive
- Activity (BT-474): inactive
- Activity (CAPAN-1): inactive
- Activity [3]: Non-toxic
- Activity (Calu-6): inactive
- Activity (HaCaT): Non-toxic
- IC50 [6]: Not Active
- IC50 [7]: Not Active
- Activity (A-431): inactive
- IC50 [8]: Not Active
- Activity (A 172): inactive
- t1/2 [9]: Stable
- Activity (Ca-Ski): inactive
